Common to all, as to conditions: binder
Assay [1] addresses ACVR2A (Homo sapiens, UniProt P27037).
Assay [2] concerns the target BMPR1B (Homo sapiens, UniProt O00238).
The target in assay [3] is CAMKK2 (Homo sapiens, UniProt Q96RR4).
The target in assay [4] is DAPK3 (Homo sapiens, UniProt O43293).
The target of assay [5] is GSG2 (Homo sapiens, UniProt Q8TF76).
For assay [6], the target named is GSK3B (Homo sapiens, UniProt P49841).
The target of assay [7] is MAPK11 (Homo sapiens, UniProt Q15759).
Sequence of MAPK11 (Q15759 whole entry): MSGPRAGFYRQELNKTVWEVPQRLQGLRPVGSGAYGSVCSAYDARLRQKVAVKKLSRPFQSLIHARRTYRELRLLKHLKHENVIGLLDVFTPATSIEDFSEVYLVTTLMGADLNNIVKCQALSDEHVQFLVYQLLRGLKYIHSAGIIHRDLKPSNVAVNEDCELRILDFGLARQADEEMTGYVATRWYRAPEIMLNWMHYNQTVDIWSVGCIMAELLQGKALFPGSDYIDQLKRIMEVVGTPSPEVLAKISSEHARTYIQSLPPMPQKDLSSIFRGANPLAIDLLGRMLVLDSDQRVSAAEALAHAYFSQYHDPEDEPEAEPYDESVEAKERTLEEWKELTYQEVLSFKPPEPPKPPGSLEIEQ
Assay [8] deals with MAPK3 (Homo sapiens, UniProt P27361).
Assay [9] addresses MAPK6 (Homo sapiens, UniProt Q16659).
The target of assay [10] is MERTK (Homo sapiens, UniProt Q12866).
For assay [11], the target named is PAK6 (Homo sapiens, UniProt Q9NQU5).
Assay [12] deals with PRKAA2 (Homo sapiens, UniProt P54646).
Assay [13] concerns the target PRKD3 (Homo sapiens, UniProt O94806).
Assay [14] concerns the target RIOK2 (Homo sapiens, UniProt Q9BVS4).
In assay [15] the target is RPS6KA3 (Homo sapiens, UniProt P51812).
The target in assay [16] is STK17A (Homo sapiens, UniProt Q9UEE5).
Assay [17] deals with STK25 (Homo sapiens, UniProt O00506).
In assay [18] the target is STK3 (Homo sapiens, UniProt Q13188).
In assay [19] the target is STK38 (Homo sapiens, UniProt Q15208).
For assay [20], the target named is STK4 (Homo sapiens, UniProt Q13043).
Assay [21] has as its target TGFBR2 (Homo sapiens, UniProt P37173).
The target in assay [22] is WNK3 (Homo sapiens, UniProt Q9BYP7).
The target of assay [23] is CDC42BPA (Homo sapiens, UniProt Q5VT25).
For assay [24], the target named is CDKL2 (Homo sapiens, UniProt Q92772).
For assay [25], the target named is MAP4K4 (Homo sapiens, UniProt O95819).
For assay [26], the target named is MAPK13 (Homo sapiens, UniProt O15264).
Assay [27] addresses MAPK8 (Homo sapiens, UniProt P45983).
The target in assay [28] is MYLK (Homo sapiens, UniProt Q15746).
Sequence of MYLK (Q15746 whole entry): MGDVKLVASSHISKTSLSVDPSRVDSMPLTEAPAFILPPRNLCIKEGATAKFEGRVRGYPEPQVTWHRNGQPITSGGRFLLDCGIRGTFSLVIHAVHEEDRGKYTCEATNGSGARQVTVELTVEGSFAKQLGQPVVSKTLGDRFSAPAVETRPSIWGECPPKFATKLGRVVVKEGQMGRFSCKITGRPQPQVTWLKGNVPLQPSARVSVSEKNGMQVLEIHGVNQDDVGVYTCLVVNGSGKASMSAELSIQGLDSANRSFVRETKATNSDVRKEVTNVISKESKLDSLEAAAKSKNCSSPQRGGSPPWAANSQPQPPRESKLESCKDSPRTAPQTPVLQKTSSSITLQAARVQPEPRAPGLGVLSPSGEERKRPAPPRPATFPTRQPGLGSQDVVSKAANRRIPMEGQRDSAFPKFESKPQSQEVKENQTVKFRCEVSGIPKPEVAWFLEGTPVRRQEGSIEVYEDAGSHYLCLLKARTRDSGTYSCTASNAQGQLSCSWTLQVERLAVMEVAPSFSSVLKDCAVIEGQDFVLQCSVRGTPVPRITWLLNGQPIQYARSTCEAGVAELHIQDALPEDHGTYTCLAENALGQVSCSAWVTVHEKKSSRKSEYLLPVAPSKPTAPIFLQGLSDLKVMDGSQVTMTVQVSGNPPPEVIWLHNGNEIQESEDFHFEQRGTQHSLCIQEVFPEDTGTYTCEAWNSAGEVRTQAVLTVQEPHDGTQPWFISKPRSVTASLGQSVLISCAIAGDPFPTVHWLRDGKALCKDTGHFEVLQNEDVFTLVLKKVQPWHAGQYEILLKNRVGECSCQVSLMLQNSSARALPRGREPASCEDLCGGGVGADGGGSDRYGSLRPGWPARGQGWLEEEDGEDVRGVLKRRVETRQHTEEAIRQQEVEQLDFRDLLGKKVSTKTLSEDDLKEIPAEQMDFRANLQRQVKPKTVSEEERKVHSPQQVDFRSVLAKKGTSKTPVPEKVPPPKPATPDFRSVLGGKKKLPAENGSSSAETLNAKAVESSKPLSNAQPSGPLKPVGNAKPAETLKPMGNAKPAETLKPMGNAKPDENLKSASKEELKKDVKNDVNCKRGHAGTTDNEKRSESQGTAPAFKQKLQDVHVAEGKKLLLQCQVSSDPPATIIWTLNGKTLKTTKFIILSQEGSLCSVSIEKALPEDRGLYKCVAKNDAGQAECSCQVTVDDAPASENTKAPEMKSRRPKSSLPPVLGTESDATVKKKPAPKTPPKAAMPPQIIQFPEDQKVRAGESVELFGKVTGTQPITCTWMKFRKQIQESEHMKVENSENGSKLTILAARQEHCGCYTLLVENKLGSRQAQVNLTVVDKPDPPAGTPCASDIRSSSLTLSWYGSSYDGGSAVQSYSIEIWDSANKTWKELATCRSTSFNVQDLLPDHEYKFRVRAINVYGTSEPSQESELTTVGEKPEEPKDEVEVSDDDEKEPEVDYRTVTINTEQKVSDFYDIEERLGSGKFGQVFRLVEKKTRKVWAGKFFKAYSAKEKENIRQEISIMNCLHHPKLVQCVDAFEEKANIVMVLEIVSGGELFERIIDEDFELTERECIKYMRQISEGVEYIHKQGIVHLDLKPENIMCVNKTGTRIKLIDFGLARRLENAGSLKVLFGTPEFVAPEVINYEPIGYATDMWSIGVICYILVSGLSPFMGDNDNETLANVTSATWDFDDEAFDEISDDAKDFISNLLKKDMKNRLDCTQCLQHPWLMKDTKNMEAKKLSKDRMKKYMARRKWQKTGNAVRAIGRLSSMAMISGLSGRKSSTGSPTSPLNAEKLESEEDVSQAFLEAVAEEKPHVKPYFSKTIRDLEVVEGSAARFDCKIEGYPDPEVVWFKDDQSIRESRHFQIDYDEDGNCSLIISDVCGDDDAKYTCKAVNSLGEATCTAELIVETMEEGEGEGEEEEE
Assay [29] concerns the target NEK2 (Homo sapiens, UniProt P51955).
Assay [30] addresses STK24 (Homo sapiens, UniProt Q9Y6E0).
The target of assay [31] is STK32A (Homo sapiens, UniProt Q8WU08).

Sequence of RIOK2 (Q9BVS4 whole entry): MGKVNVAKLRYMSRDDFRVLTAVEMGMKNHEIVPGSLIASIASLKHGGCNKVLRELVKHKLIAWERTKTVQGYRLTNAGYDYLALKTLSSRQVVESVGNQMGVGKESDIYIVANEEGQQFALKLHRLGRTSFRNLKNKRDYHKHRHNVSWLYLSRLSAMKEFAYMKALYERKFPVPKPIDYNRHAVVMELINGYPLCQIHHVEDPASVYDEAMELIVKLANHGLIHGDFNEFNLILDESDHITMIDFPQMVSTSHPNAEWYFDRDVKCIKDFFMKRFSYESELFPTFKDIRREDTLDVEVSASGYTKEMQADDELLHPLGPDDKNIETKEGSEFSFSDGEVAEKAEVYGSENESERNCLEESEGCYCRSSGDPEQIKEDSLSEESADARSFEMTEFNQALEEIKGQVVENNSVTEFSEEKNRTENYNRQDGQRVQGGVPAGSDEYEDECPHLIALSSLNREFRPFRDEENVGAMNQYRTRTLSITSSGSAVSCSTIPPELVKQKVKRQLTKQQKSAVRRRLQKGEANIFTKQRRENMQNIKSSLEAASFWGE
Sequence of PRKD3 (O94806 whole entry): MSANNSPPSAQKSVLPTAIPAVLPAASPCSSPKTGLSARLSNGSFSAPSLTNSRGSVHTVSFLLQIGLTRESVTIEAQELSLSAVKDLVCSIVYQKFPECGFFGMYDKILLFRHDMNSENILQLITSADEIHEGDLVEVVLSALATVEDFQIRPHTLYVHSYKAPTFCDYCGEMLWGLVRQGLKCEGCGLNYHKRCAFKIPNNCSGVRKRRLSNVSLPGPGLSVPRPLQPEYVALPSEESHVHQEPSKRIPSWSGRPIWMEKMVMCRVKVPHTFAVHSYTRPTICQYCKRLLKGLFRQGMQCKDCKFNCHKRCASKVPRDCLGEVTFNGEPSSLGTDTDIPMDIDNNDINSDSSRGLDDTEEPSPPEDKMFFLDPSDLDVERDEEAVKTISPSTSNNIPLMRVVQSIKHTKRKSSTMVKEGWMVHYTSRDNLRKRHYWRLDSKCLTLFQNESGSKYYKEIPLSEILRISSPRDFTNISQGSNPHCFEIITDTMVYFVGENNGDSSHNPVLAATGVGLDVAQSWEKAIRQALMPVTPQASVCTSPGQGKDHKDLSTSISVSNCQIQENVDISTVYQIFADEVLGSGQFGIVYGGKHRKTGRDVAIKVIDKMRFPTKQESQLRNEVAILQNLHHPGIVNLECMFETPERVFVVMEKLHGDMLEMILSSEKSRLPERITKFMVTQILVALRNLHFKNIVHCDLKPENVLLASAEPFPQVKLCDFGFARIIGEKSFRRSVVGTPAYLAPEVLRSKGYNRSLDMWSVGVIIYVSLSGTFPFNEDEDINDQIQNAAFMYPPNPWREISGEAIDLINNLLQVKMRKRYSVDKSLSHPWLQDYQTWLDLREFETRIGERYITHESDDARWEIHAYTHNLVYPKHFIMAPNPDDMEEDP
Sequence of MAPK8 (P45983 whole entry): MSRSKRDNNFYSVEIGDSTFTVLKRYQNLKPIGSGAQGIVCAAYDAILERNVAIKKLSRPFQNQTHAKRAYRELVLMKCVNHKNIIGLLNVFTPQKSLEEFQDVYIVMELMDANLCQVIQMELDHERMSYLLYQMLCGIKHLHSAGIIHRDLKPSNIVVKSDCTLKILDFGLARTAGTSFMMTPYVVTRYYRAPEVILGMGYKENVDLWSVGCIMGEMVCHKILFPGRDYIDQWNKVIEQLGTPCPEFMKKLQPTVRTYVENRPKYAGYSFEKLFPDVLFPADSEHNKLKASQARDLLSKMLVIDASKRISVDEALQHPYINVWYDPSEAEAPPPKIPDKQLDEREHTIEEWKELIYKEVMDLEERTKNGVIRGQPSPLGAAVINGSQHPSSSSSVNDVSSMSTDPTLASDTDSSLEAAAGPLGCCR
Sequence of MAPK6 (Q16659 whole entry): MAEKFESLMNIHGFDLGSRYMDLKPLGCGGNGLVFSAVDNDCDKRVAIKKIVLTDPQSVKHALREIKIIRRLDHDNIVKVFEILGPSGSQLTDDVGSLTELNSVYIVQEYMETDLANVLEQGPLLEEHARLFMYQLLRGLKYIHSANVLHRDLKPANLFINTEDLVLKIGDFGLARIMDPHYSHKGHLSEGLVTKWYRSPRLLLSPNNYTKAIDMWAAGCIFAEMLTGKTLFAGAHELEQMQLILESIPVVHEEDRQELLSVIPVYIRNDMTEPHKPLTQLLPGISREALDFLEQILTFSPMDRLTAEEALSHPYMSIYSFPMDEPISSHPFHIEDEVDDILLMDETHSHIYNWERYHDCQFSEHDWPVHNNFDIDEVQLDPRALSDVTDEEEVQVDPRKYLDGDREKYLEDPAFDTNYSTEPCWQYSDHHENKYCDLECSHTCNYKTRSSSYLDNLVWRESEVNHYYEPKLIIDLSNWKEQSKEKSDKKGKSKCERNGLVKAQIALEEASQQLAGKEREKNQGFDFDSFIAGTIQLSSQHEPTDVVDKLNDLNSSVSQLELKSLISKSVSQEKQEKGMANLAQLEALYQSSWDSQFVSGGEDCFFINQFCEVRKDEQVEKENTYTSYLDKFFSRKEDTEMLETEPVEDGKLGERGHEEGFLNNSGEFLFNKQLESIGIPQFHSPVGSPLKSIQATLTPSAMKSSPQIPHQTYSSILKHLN

For the compound `CC(=O)c1cccc(-c2cnc3ccc(NCC4CC4)nn23)c1` [compound 1, K00135], the “ΔTm inhibitor 1” value in assay [1] worked out at 4.0 °C; in assay [2] it was 11.5 °C; in [3], 2.5 °C; in assay [4], 2.8 °C; in assay [5], 6.5 °C; in [6], 4.1 °C. The “ΔTm inhibitor 1” value in [7] was determined as 0.3 °C; in assay [8], 0.5 °C; in assay [9] it was 0.4 °C; in assay [10], 1.3 °C; in [11] it was 1.1 °C; in [12], 1.1 °C. Moreover, the “ΔTm inhibitor 1” value worked out at 0.8 °C in assay [13]; 0.3 °C in assay [14]; 3.4 °C in assay [15]; 3.4 °C in [16]; 0.5 °C in assay [17]; 2.9 °C in [18]. For the same compound, the “ΔTm inhibitor 1” value is 1.1 °C in [19], 2.6 °C in [20], 13.7 °C in assay [21] and 0.0 °C in assay [22].
On to `CCN1/C(=C/C(C)=O)Sc2ccc(OC)cc21` [compound 2, TG003], for which the “ΔTm inhibitor 2” value in assay [3] is 0.4 °C; in [23], -0.4 °C; in [24] it was -0.5 °C; in assay [4] it was 0.9 °C; in assay [6] it was 1.4 °C; in assay [25], -0.1 °C. The “ΔTm inhibitor 2” value in assay [7] was 0.0 °C; in assay [26] it was 0.4 °C; in assay [8], -0.1 °C; in assay [9], 0.0 °C; in [27], 0.7 °C; in assay [10], 0.0 °C. Also, the “ΔTm inhibitor 2” value in assay [28] is -0.2 °C; in assay [29] it was 0.8 °C; in assay [11], -0.9 °C; in assay [12], -0.1 °C; in assay [13], 2.7 °C; in assay [14] it was -0.2 °C. Besides, the “ΔTm inhibitor 2” value in [15] was 0.7 °C; in assay [30], -0.2 °C; in [17] it was 0.7 °C; in assay [31], -0.2 °C; in assay [19], 0.4 °C; in assay [20], 0.7 °C. Also, the “ΔTm inhibitor 2” value in [22] was -0.3 °C.
As to `Nc1nccc(-c2ccc3noc(-c4ccc(Cl)cc4)c3c2)n1` [compound 4, K00972], the “ΔTm inhibitor 4” value in assay [1] amounted to 0.3 °C; in [2], 0.2 °C; in assay [23] it was 0.6 °C; in assay [24] it was 0.1 °C; in assay [5], 4.0 °C; in assay [25] it was 0.2 °C. Also, the “ΔTm inhibitor 4” value in [26] turned out to be 0.5 °C; in [27], 1.0 °C; in assay [28], 0.1 °C; in assay [29] it was 0.1 °C; in assay [16] it was 2.2 °C; in assay [30], 0.8 °C. In addition, the “ΔTm inhibitor 4” value in assay [18] came out at 1.6 °C; in assay [31], 0.2 °C; in [21], 2.0 °C.

The record behind these values is publication doi:10.1101/2020.07.01.182642v1 (biorxiv, 2020).
